US20250304523A1, “COMBINED LACTATE AND KETONE BODY ESTERS FOR MEDICAL AND NUTRITIONAL USE” (Aarhus Universitet, priority 2022, published 2025)

How the values were obtained:
Format in all cases: in vivo
[1] = tested on: N-lactoyl-phenylalanine (Lac-Phe); test: Quantification of N-lactoyl-phenylalanine (Lac-Phe) in rat serum after oral administration (LC-MS/MS); settings: compared to baseline (internal control)
Procedure: As provided in example 21 with the difference that N-lactoyl-phenylalanine (Lac-Phe) was quantified using LC-MS/MS analyses.
LC-MS/MS analyses were carried out as follows: Forty μL rat plasma was diluted with 100 μL water in a 2 mL tube, added 115 μL methanol (Merck hypergrade) and 420 μL acetonitrile (Merck hypergrade), vortex mixed, incubated for 5 min at room temperature, and then centrifuged at 10,000×g for 5 min. Five hundred microliter supernatant was transferred to a 96-well plate (Eppendorf 1 mL deepwell), evaporated to dryness under a nitrogen gas flow at 30° C., and then reconstituted in 100 μL water with 0.1% formic acid. […]
The sample was introduced to the mass spectrometer through electrospray ionization in the negative mode with a capillary voltage of 2.2 kV and the source and desolvation temperatures were 150 and 500° C., and the nitrogen gas flows were 50 L/h (cone) and 800 L/h (desolvation). The analytes were detected in the multiple reaction monitoring mode with the following transitions (m/z) and cone voltage/collision energies (CV/CE), L-Lac-Phe (quantification ion m/z: 236.2>88.1, CV/CE: 25V/15 eV and qualifier ion m/z: 236.2>147.1, CV/CE: 25V/15 eV). […]

[2] = Quantification of BHB and lactate in rat serum after oral administration (LC-MS/MS); settings: compared to baseline (internal control), sampling until 180 minutes
Procedure: (§1) The diLaKe ester (formula II) is diluted in physiological saline solution (0.9% NaCl) and administered as a single bolus of 2 mL, per oral dose. The dose of 4500 mg/kg is based on a previous pilot series. Placebo animals receive a single bolus of 2 mL physiological saline solution (0.9% NaCl).
Male Sprague Dawley rats are kept for acclimatization at a constant temperature of 23° C., with a 12 h light-dark cycle and with unlimited access to food and water. All animal handling is in accordance with national guidelines in Denmark and the Guide for the Care and Use of Laboratory Animals^1 and all experiments conformed to Danish Law (Act. No. 1306 of 23 Nov. 2007).
The rats are randomly selected to receive either diLaKe or placebo.
Rats are anaesthetised in an induction chamber with 8% Sevoflurane (Sevorane®, AbbVIE A/S, Copenhagen, Denmark) mixed with oxygen saturated atmospheric air (flow: 2.0 L/min).
Upon achieved anaesthesia, the rats are intubated and connected to a mechanical ventilator (Ugo Basile 7025 rodent ventilator, Comerio, Varese, Italy) with an adjusted flow of 1.0 L/min with 3.5% Sevoflurane. Body temperature is kept at a constant 37° C.±1° C. with a temperature probe (UNO, Zevenaar, Holland). A PTFE coated flexible orogastric tube (Fuchigami, Japan) is placed and the rat is left for stabilization for 15 minutes.
After stabilization a baseline blood sample is collected from the rat tail vein before administration of diLaKe or placebo.
(§2) Following the baseline blood sample, a bolus of diLaKe solution or placebo is administered via the orogastric tube to the animals. […] Serum is collected and stored at −80° C. for further analysis.
The concentration of BHB and lactate will be determined in the blood samples isolated from the rats according to example 3. Rat serum isolated every 15 minutes for a 2 hours are analyzed. The quantification is done on LC-MS/MS using isotopically labeled internal standards (7).
The LaKe ester (formula XXII and XXIII) was diluted in physiological saline solution (0.9% NaCl) and administered as a single bolus of 2 mL, per oral dose. The dose of 4500 mg/kg was based on a previous pilot series (data not shown).
Male Sprague Dawley rats (300-350 g, Taconic, Ry, Denmark) were kept for acclimatization at a constant temperature of 23° C., with a 12 h light-dark cycle and with unlimited access to food and water. […]
Based on own experience and reports by other research groups, a sample size of n=8 was considered adequate to identify a treatment effect. All results are expressed as mean±SD unless otherwise stated. Differences in concentrations were analysed using two-way ANOVA with Bonferroni post hoc correction. […]

[3] = tested on: free fatty acids (FFA); test: Non-esterified free fatty acids in rat serum after oral administration (NEFA-HR (2) kit); settings: rats, compared to baseline (internal control), sampling until 180 minutes
Procedure: as §1, §2
The concentration of free-fatty acids (FFA) is determined in the blood samples isolated from the rats according to example 3. […]
Concentrations of non-esterified free fatty acids (NEFA) are measured using a NEFA-HR (2) kit (Wako, Chemicals Gmbh). Absorbance is measured by spectrometry (PHERAstar FS, BMG LABTECH, Ortenberg, Germany). […]
The concentration of free-fatty acids (FFA) was determined in the blood samples isolated from the rats according to example 4. […]
Concentrations of non-esterified free fatty acids (NEFA) were measured using a NEFA-HR (2) kit (Wako, Chemicals Gmbh). Absorbance was measured by spectrometry (PHERAstar FS, BMG LABTECH, Ortenberg, Germany).
The concentration of free-fatty acids (FFA) was determined in the blood samples isolated from the rats according to example 4, with the difference that KeLa (formula XXIV and XXV) was used. […]

Row | Serum levels of BHB ([2]; single rat) | Serum levels of lactate ([2]; single rat) | Serum levels of BHB ([2]; rats) | Serum levels of lactate ([2]; rats) | SMILES | Serum concentration of Lac-Phe ([1]; single rat) | Serum concentration of Lac-Phe ([1]; rats, sampling until 180 minutes) | FFA-levels in rat serum [3]
1 | increase in serum levels | increase in serum levels | – | – | CC(=O)C(=O)OCC[C@@H](C)OC(=O)C(C)=O [diPyKe, (R)-butane-1,3-diyl bis(2-oxopropanoate)] | increased serum concentration | – | –
2 | – | – | increase in serum levels | increase in serum levels | C[C@H](CCOC(=O)[C@H](C)O)OC(=O)[C@H](C)O [diLaKe, (R)-butane-1,3-diyl (2S,2'S)-bis(2-hydroxypropanoate)] | – | increased serum concentration | decrease in FFA-levels
